Data: patent publication US8293734B2, “Nitroimidazooxazine and nitroimidazooxazole analogues and their uses” (priority 2009, dated 2012)
Converted amounts (≈) assume the structure as drawn. Read-outs that look alike come from different tables or passages of the source.

Assays:
[1] = tested on: Trypanosoma cruzi amastigotes (Tulahuen C2C4 strain); assay: Trypanosoma cruzi assay in infected L-6 cells; format: cell-based; conditions: L6, 96 h incubation, read-out: IC50 T. cruzi
Description: (§1) (c) Antiprotozoal screening. Compounds were evaluated for their activities against both Trypanosoma cruzi amastigotes and Leishmania donovani amastigotes (free or encapsulated in macrophages), according to the following protocols:
(i) Trypanosoma cruzi assay. L-6 cells (2×10^3) in medium (100 μL of RPMI 1640 supplemented with 2 mM L-glutamine plus 10% heat inactivated fetal calf serum) were seeded in 96-well microtitre plates (Costar™) and incubated at 37° C. (5% CO2) for 1d. A suspension (50 μL) of Trypanosoma cruzi trypomastigotes (5×10^3 of Tulahuen C2C4 strain, containing the β-galactosidase gene) was added, and the cells were incubated at 37° C. (5% CO2) for a further 48 h to establish the infection. The medium was removed and replaced by fresh medium and the infected cells were then incubated at 37° C. (5% CO2) for 96 h in either medium alone or in the presence of serial (3-fold) dilutions of test compounds (initially prepared as 10 mg/mL stock solutions in DMSO and diluted into medium). Benznidazole was employed as a standard in each assay. Following incubation, chlorophenol red glycoside (100 mM) in 0.1% Nonidet P40/PBS (50 μL) was added, and (after 6 h) the absorbance at 540 nm was measured and used to calculate the IC50 values.

[2] = tested on: L. donovani amastigotes (MHOM-ET-67/L82) in mouse macrophages; assay: Leishmania donovani infected macrophage assay; format: cell-based; conditions: 96 h incubation, read-out: IC50 L. donovani macro
Description: as §1
(iii) Leishmania donovani infected macrophage assay. Freshly harvested mouse macrophages in medium (RPMI 1640 plus 10% heat inactivated fetal calf serum) were incubated at 37° C. (5% CO2) for 24 h and then infected (1:3 macrophages to amastigotes) with an axenic L. donovani amastigote culture (MHOM-ET-67/L82) in medium (SM, pH 5.4 plus 10% heat inactivated fetal calf serum). The infected macrophages were seeded at a density of 1.2×10^6/mL (by diluting in RPMI+10% FCS) in 16-well slides (Lab-tek™) and incubated at 37° C. (5% CO2) for 24 h. The medium was removed and replaced by fresh medium (RPMI 1640+10% FCS), and this was repeated following mixing. The infected macrophages were then incubated at 37° C. (5% CO2) for 96 h in either medium alone or in the presence of serial (3-fold) dilutions of test compounds (initially prepared as 10 mg/mL stock solutions in DMSO and diluted into medium). Miltefosin was employed as a standard in each assay. […], the slides were fixed (5 min in 100% MeOH) and stained (10% Giemsa, 10 min). The ratio of infected to uninfected macrophages was determined by microscopic examination, and the IC50 values were then calculated by linear regression analysis.

VERO cells (CCL-81) = assay: Mammalian cell cytotoxicity assay (tetrazolium dye); format: cell-based; conditions: Chlorocebus sabaeus, read-out: IC50 VERO
Description: (b) Mammalian cell cytotoxicity assay. This was assessed against VERO cells (CCL-81, American Type Culture Collection) in a 72 h exposure, using a tetrazolium dye assay (Falzari et al., 2005).

[3] = tested on: M. tuberculosis bacteria in the non-replicating state; assay: LORA low-oxygen-recovery assay, MIC (anaerobic); format: cell-based; conditions: Mycobacterium tuberculosis, 264 h; 11 day luminescence-based low-oxygen-recovery assay
[4] = tested on: Axenically grown L. donovani amastigotes (MHOM-ET-67/L82); assay: Axenic Leishmania donovani assay; format: cell-based; conditions: 70 h incubation, read-out: IC50 L. donovani axen
Description: as §1
(ii) Axenic Leishmania donovani assay. Axenically grown L. donovani amastigotes (MHOM-ET-67/L82) from a healthy culture in log phase were seeded at a density of 1×10^6/mL medium (SM, pH 5.4 plus 10% heat inactivated fetal calf serum) in 96-well microtitre plates (Costar™) and incubated at 37° C. (5% CO2) for 70 h in either medium alone or in the presence of serial (3-fold) dilutions of test compounds (initially prepared as 10 mg/mL stock solutions in DMSO and diluted into medium). Miltefosin was employed as a standard in each assay. After incubation, Resazurin fluorescent dye was added to each well, and incubation was continued for an additional 2 h. The IC50 values were determined from measurements of the fluorescence data.

[5] = tested on: replicating Mycobacterium tuberculosis; assay: MABA microplate Alamar blue assay, MIC (aerobic); format: cell-based; conditions: 192 h

Row | Structure (SMILES) | melting point [°C] | IC50 [1] [µg/mL] | IC50 [2] [µg/mL] | IC50 (VERO cells (CCL-81); 72 h exposure) [µM] | MIC [3] [µM] | IC50 [4] [µg/mL] | MIC [5] [µM] | IC50 (VERO cells (CCL-81); 72 h) [µM]
1 | COc1ccc(-c2ccc(OCC3(C)Cn4cc([N+](=O)[O-])nc4O3)cc2)cn1 (stereo not shown) [Compound 8, 2-{[4-(6-methoxy-3-pyridinyl)phenoxy]methyl}-2-methyl-6-nitro-2,3-dihydroimidazo[2,1-b][1,3]oxazole] | 217 to 219 | 4.1 (≈ 10.7 µM) | 0.38 (≈ 0.994 µM) | > 128 | 14 (≈ 5.35 µg/mL) | 0.017 (≈ 0.0445 µM) | 0.04 (≈ 0.0153 µg/mL) | 
2 | CC1(COCc2ccc(OCc3ccccc3)cc2)CCn2cc([N+](=O)[O-])nc2O1 (stereo not shown) [Compound 54, 7-({[4-(benzyloxy)benzyl]oxy}methyl)-7-methyl-2-nitro-6,7-dihydro-5H-imidazo[2,1-b][1,3]oxazine] | 109 to 111 | 0.74 (≈ 1.81 µM) | 0.095 (≈ 0.232 µM) | > 128 | 1.4 (≈ 0.573 µg/mL) | 0.047 (≈ 0.115 µM) | 0.2 (≈ 0.0819 µg/mL) | 
3 | O=[N+]([O-])c1cn2c(n1)OC(COCc1ccc(-c3ccc(OC(F)(F)F)cc3)cc1)CC2 (stereo not shown) [Compound 51, 2-nitro-7-({[4′-(trifluoromethoxy)[1,1′-biphenyl]-4-yl]methoxy}methyl)-6,7-dihydro-5H-imidazo[2,1-b][1,3]oxazine] | 159 to 161 | 15 (≈ 33.4 µM) | 0.17 (≈ 0.378 µM) | > 128 | 1.5 (≈ 0.674 µg/mL) | 0.046 (≈ 0.102 µM) | 0.055 (≈ 0.0247 µg/mL) | 
4 | CC1(COc2ccc(-c3ccc(C#N)cc3)cc2)Cn2cc([N+](=O)[O-])nc2O1 (stereo not shown) [Compound 9, 4′-[(2-methyl-6-nitro-2,3-dihydroimidazo[2,1-b][1,3]oxazol-2-yl)methoxy][1,1′-biphenyl]-4-carbonitrile] | 180 to 181 | 1.2 (≈ 3.19 µM) | 0.2 (≈ 0.531 µM) | > 128 | 3.7 (≈ 1.39 µg/mL) | 0.016 (≈ 0.0425 µM) | 0.04 (≈ 0.0151 µg/mL) | 
5 | O=[N+]([O-])c1cn2c(n1)OC(COCc1cccc(-c3ccc(OC(F)(F)F)cc3)c1)CC2 (stereo not shown) [Compound 50, 2-nitro-7-({[4′-(trifluoromethoxy)[1,1′-biphenyl]-3-yl]methoxy}methyl)-6,7-dihydro-5H-imidazo[2,1-b][1,3]oxazine] | 117 to 119 | 6.3 (≈ 14 µM) | 0.15 (≈ 0.334 µM) | > 128 | 5.1 (≈ 2.29 µg/mL) | 0.041 (≈ 0.0912 µM) | 0.24 (≈ 0.108 µg/mL) | 
6 | O=[N+]([O-])c1cn2c(n1)OCC(COCc1ccc(-c3ccc(OC(F)(F)F)cc3)cc1)C2 (stereo not shown) [Compound 75, 2-nitro-6-({[4′-(trifluoromethoxy) [1,1′-biphenyl]-4-yl]methoxy}methyl)-6,7-dihydro-5H-imidazo[2,1-b][1,3]oxazine] | 135 to 138 | 0.47 (≈ 1.05 µM) | 0.67 (≈ 1.49 µM) |  | > 128 | 0.2 (≈ 0.445 µM) | 0.3 (≈ 0.135 µg/mL) | > 128
7 | O=[N+]([O-])c1cn2c(n1)OCC(COCc1cccc(OC(F)(F)F)c1)C2 (stereo not shown) [Compound 71, 2-nitro-6-({[3-(trifluoromethoxy)benzyl]oxy}methyl)-6,7-dihydro-5H-imidazo[2,1-b][1,3]oxazine] | 60 to 61 | 0.56 (≈ 1.5 µM) | 0.65 (≈ 1.74 µM) | > 128 | 15 (≈ 5.6 µg/mL) | 0.2 (≈ 0.536 µM) | 0.33 (≈ 0.123 µg/mL) | 
